Eight compounds from US7838529B2, “Xanthine derivates, their preparation and their use in pharmaceutical compositions” (Boehringer Ingelheim International GmbH, priority 2002, dated 2010) can be followed below.

Test system in the first data set: not listed separately
The data set is described as follows: Tolerability after oral administration to rats (behavior). It counts as in vivo. To be noted: 10 mg/kg.
Take `CC#CCn1c(N2CCC[C@@H](N)C2)nc2c1c(=O)n(CC(=O)c1ccccc1NC(=O)C1CC1)c(=O)n2C` [Example 1 (5), 1-(2-{2-[(cyclopropylcarbonyl)amino]phenyl}-2-oxoethyl)-3-methyl-7-(2-butyn-1-yl)-8-((R)-3-aminopiperidin-1-yl)xanthine]: the “changes in the animals' behavior” value is “no changes in the animals' behavior could be detected”.

The target of the next data set is T1, DPP-IV (Homo sapiens, UniProt P27487).
T1 construct: an extract of human colon carcinoma cell line Caco-2 is used as the DPP-IV source; endogenous in cells; host or cells: Caco-2 (human colon carcinoma), differentiated to induce DPP-IV expression
T1 sequence (P27487 whole entry): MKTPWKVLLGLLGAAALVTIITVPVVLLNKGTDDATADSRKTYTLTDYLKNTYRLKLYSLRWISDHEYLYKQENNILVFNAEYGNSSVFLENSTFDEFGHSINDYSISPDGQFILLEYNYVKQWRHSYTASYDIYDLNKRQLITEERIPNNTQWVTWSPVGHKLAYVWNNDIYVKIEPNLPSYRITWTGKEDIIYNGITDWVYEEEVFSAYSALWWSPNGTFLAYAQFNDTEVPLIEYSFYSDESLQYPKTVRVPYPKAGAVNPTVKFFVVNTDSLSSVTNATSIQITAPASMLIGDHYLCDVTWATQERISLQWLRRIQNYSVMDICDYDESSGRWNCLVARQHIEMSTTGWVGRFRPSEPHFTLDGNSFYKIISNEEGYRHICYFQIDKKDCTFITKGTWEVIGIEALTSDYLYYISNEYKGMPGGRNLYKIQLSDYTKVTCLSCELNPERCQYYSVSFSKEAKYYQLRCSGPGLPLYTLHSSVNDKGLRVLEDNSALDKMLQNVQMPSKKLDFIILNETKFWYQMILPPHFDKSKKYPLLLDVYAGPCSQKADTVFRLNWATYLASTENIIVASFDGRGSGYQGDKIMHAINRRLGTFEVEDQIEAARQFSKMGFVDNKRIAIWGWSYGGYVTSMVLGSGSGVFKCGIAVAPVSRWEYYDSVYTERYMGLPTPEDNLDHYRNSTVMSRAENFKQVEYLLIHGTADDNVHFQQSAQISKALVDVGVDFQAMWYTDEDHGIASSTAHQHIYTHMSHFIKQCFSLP
The data set is described as follows: DPP-IV assay with Caco-2 cell extract as DPP-IV source. It counts as biochemical. To be noted: extract of human colon carcinoma cell line Caco-2; AFC substrate 100 μM; 60 minutes at ambient temperature; read-out: DPP-IV inhibition IC50. The protocol: The differentiation of the cells in order to induce the DPP-IV expression was carried out as described by Reiher et al., “Increased Expression of Intestinal Cell Line Caco-2”, Proc. Natl. Acad. Sci. Vol. 90, pages 5757-5761 (1993). The cell extract was obtained from cells solubilized in a buffer (10 mM Tris HCl, 0.15 M NaCl, 0.04 t.i.u. aprotinin, 0.5% Nonidet P-40, pH 8.0) by centrifuging at 35,000 g for 30 minutes at 4° C. (to remove cell debris).
The DPP-IV assay was carried out as follows:
50 μL substrate solution (AFC; AFC is amido-4-trifluoromethylcoumarin), final concentration 100 μM, were placed in black microtitre plates. 20 μL of assay buffer (final concentrations 50 mM Tris HCl pH 7.8, 50 mM NaCl, 1% DMSO) was pipetted in. The reaction was started by adding 30 μL of solubilized Caco-2 protein (final concentration 0.14 μg of protein per well). The test substances to be investigated were typically added prediluted in 20 μL, and the volume of assay buffer was then reduced accordingly. The reaction was carried out at ambient temperature, incubating for 60 minutes. Then the fluorescence was measured in a Victor 1420 Multilabel Counter, the excitation wavelength being 405 nm and the emission wavelength being 535 nm. Blank readings (corresponding to 0% activity) were obtained in mixtures without any Caco-2 protein (volume replaced by assay buffer), control values (corresponding to 100% activity) were obtained in mixtures with no substance added. […]
In the case of `CC(C)=CCn1c(N2CCCC(N)C2)nc2c1c(=O)n(CC(=O)c1ccccc1NC(=O)C1CC1)c(=O)n2C` (stereo not drawn) [1 (1), 1-(2-{2-[(cyclopropylcarbonyl)amino]phenyl}-2-oxoethyl)-3-methyl-7-(3-methyl-2-buten-1-yl)-8-(3-aminopiperidin-1-yl)xanthine], the IC50 (usually the concentration that inhibits the measured activity by half) is 11 nM.
Same read-out and setting: with `CC#CCn1c(N2CCCC(N)C2)nc2c1c(=O)n(CC(=O)c1ccccc1NC=O)c(=O)n2C` (stereo not drawn) [1 (2), 1-[2-(2-formylaminophenyl)-2-oxoethyl]-3-methyl-7-(2-butyn-1-yl)-8-(3-aminopiperidin-1-yl)xanthine] the figure was 3 nM; with `C/C=C/Cn1c(N2CCC[C@@H](N)C2)nc2c1c(=O)n(CC(=O)c1ccccc1NC(=O)C1CC1)c(=O)n2C` [1 (3), 1-(2-{2-[(cyclopropylcarbonyl)amino]phenyl}-2-oxoethyl)-3-methyl-7-((E)-2-buten-1-yl)-8-((R)-3-aminopiperidin-1-yl)xanthine], 4 nM; with `C/C=C/Cn1c(N2CCC[C@H](N)C2)nc2c1c(=O)n(CC(=O)c1ccccc1NC(=O)C1CC1)c(=O)n2C` [1 (4), 1-(2-{2-[(cyclopropylcarbonyl)amino]phenyl}-2-oxoethyl)-3-methyl-7-((E)-2-buten-1-yl)-8-((S)-3-aminopiperidin-1-yl)xanthine], 3 nM.
On the same count and under the same terms, with `CC#CCn1c(N2CCC[C@H](N)C2)nc2c1c(=O)n(CC(=O)c1ccccc1NC(=O)C1CC1)c(=O)n2C` [1 (6), 1-(2-{2-[(cyclopropylcarbonyl)amino]phenyl}-2-oxoethyl)-3-methyl-7-(2-butyn-1-yl)-8-((S)-3-aminopiperidin-1-yl)xanthine] the figure was 5 nM.
Same read-out and setting: with `C/C=C/Cn1c(N2CCCC(N)C2)nc2c1c(=O)n(CC(=O)c1ccccc1NC(=O)c1ccccn1)c(=O)n2C` (stereo not drawn) [1 (7), 1-[2-(2-{[(pyridin-2-yl)carbonyl]amino}phenyl)-2-oxoethyl]-3-methyl-7-((E)-2-buten-1-yl)-8-(3-aminopiperidin-1-yl)xanthine] the figure was 8 nM.
For the compound `CC#CCn1c(N2CCC[C@@H](N)C2)nc2c1c(=O)n(CC(=O)c1ccccc1NC(=O)C1CC1)c(=O)n2C` [Example 1 (5), 1-(2-{2-[(cyclopropylcarbonyl)amino]phenyl}-2-oxoethyl)-3-methyl-7-(2-butyn-1-yl)-8-((R)-3-aminopiperidin-1-yl)xanthine], the 50% inhibitory concentration (IC50) is 3 nM.
Same read-out and setting: with `CC(C)=CCn1c(N2CCCC(N)C2)nc2c1c(=O)n(CC(=O)c1ccccc1NC=O)c(=O)n2C` (stereo not drawn) [Example 1, 1-[2-(2-formylaminophenyl)-2-oxoethyl]-3-methyl-7-(3-methyl-2-buten-1-yl)-8-(3-aminopiperidin-1-yl)xanthine] the figure was 5 nM.
